Some results are limits rather than exact numbers.

Experimental findings from ChEMBL document CHEMBL3301451, “MMV Malaria Box gametocyte functional viability assay screening” are described below.

Experiment [1] relates to Plasmodium falciparum. Nature of the experiment: MMV: P. falciparum NF54 functionally mature Stage V gametocytes were incubated for 24 hr in the presence of the test compounds. Gamete formation was then triggered by addition of 2uM xantheurenic acid and temperature decrease to ~20C. Male gamete exflagellation was recorded and analysed by automated microscopy after 20 min. All compounds were tested in 4 independent experiments and data presented here is the mean. IC50s determined for selected compounds. The class given is functional, organism-based.

Experiment [2] concerns Plasmodium berghei. Kind of experiment: MMV: P. berghei-infected blood was withdrawn from mice by cardiac pucture before being immediately added to ookinete culture medium containing test compounds. 26 hr later, GFP-positive ookinetes were identified and counted by automated microscopy. All compounds were tested in 4 independent experiments and data presented here is the mean. IC50s determined for selected compounds. The class given is functional, organism-based.

Experiment [3] concerns Plasmodium falciparum. Nature of the experiment: MMV: P. falciparum NF54 functionally mature Stage V gametocytes were incubated for 24 hr in the presence of the test compounds. Gamete formation was then triggered by addition of 2uM xantheurenic acid and temperature decrease to ~20C. Female gamete formation was recorded 24 hr later by automated microscopy detection of surface labelling of female gametes with a Cy3-conjugated antibody reactive to Pfs25. All compounds were tested in 4 independent experiments and data presented here is the mean. IC50s determined for selected compounds. The class given is functional, organism-based. To be noted: NF54, 24 h.

Experiment [4] deals with Plasmodium falciparum. Kind of experiment: MMV: P. falciparum NF54 functionally mature Stage V gametocytes were incubated for 24 hr in the presence of the test compounds. Gamete formation was then triggered by addition of 2uM xantheurenic acid and temperature decrease to ~20C. Male gamete exflagellation was recorded and analysed by automated microscopy after 20 min. All compounds were tested in 4 independent experiments and data presented here is the mean. It is filed as functional. On the set-up: concentration or dose not given beside the values.

Experiment [5] deals with Plasmodium berghei. Nature of the experiment: MMV: P. berghei-infected blood was withdrawn from mice by cardiac pucture before being immediately added to ookinete culture medium containing test compounds. 26 hr later, GFP-positive ookinetes were identified and counted by automated microscopy. All compounds were tested in 4 independent experiments and data presented here is the mean. It is filed as functional. The arrangement: concentration or dose not given beside the values.

Experiment [6] has as its system Plasmodium falciparum. Kind of experiment: MMV: P. falciparum NF54 functionally mature Stage V gametocytes were incubated for 24 hr in the presence of the test compounds. Gamete formation was then triggered by addition of 2uM xantheurenic acid and temperature decrease to ~20C. Female gamete formation was recorded 24 hr later by automated microscopy detection of surface labelling of female gametes with a Cy3-conjugated antibody reactive to Pfs25. All compounds were tested in 4 independent experiments and data presented here is the mean. To be noted: NF54, 24 h. It is filed as functional. On the set-up: concentration or dose not given beside the values.

For `COc1ccc(-c2cc3c(nn2)-c2ccccc2C3=O)cc1`, the IC50 (as a rule, the midpoint of a concentration-inhibition curve) is 3.71 µM in the experiment with Plasmodium falciparum [1], 5.76 µM in the experiment on Plasmodium berghei [2] and over 50 µM in the experiment on Plasmodium falciparum [3]. Further, the values for the inhibition in the experiment on Plasmodium falciparum [4], in the experiment on Plasmodium berghei [5] and in the experiment on Plasmodium falciparum [6] were 71.3%, 2.461% and -5.89%, respectively.

`COc1ccc(C2c3ccc4ccccc4c3Oc3ncn(CCCN(C)C)c(=N)c32)cc1` (stereo unspecified): the IC50 with Plasmodium falciparum [1] is 0.183 µM; with Plasmodium berghei [2], 3.49 µM; in the experiment with Plasmodium falciparum [3], 0.473 µM. Further, the figures for the inhibition in the experiment on Plasmodium falciparum [4], in the experiment with Plasmodium berghei [5] and with Plasmodium falciparum [6] were 83.6%, -7.365% and 27.3%, respectively.

For the compound `Cl.Clc1cc(Br)ccc1-c1ccc(CNCC2CCNCC2)o1`, the IC50 stood at 0.0255 µM in the experiment on Plasmodium falciparum [1], 7.82 µM with Plasmodium berghei [2] and 0.159 µM in the experiment on Plasmodium falciparum [3]. Moreover, the inhibition (as a rule, the drop in the measured response relative to a control, in per cent) in the experiment with Plasmodium falciparum [4] is 74.1%; in the experiment on Plasmodium berghei [5], -9.542%; in the experiment on Plasmodium falciparum [6], 38.1%.

As for `COc1ccccc1NC1=C(N2CCCCC2)C(=O)c2ccccc2C1=O`, the IC50 is 0.096 µM with Plasmodium falciparum [1], 4.25 µM in the experiment on Plasmodium berghei [2] and over 50 µM with Plasmodium falciparum [3]. In addition, the results for the inhibition in the experiment with Plasmodium falciparum [4], in the experiment with Plasmodium berghei [5] and in the experiment on Plasmodium falciparum [6] were 96.8%, -14.08% and -15.9%, respectively.

Turning to `CC1CC2=C(CC1CNCCCN(C)C)C(C)(C)CCC2` (stereo unspecified), the IC50 with Plasmodium falciparum [1] came out at 0.139 µM; in the experiment with Plasmodium berghei [2], 6.5 µM; with Plasmodium falciparum [3], 0.189 µM. The results for the inhibition with Plasmodium falciparum [4], in the experiment with Plasmodium berghei [5] and in the experiment on Plasmodium falciparum [6] were 62.3%, -10.78% and 56.1%, respectively.

On to `CN(C)c1ccc(C(O)(c2ccc(N(C)C)cc2)c2ccc(N(C)C)cc2)cc1` [METHYLROSANILINE], for which the IC50 in the experiment with Plasmodium falciparum [1] is 0.977 µM; with Plasmodium berghei [2] it was 0.991 µM; in the experiment with Plasmodium falciparum [3] it was 0.446 µM. The inhibition came to 19.7% in the experiment on Plasmodium falciparum [4], 62.53% with Plasmodium berghei [5] and 44.6% in the experiment with Plasmodium falciparum [6].
